{"source": "patent US12122833B2", "about": "“Combination therapies of HDAC inhibitors and PD-1 inhibitors” (HUYABIO International, LLC, priority 2016, dated 2024)", "key": {"[1]": {"test_system": "4T1 murine mammary carcinoma", "assay": "Example 4: lung metastatic foci count, orthotopic 4T1 murine mammary carcinoma in BALB/c mice", "type": "in vivo, mouse", "settings": "day 14; HBI-8000 50 mg/kg p.o. qd×13; anti-PD-1 5 mg/kg i.p. biwk×2; vs vehicle control (35.0±2.17 foci)", "method": "In this Example 4, antitumor responses induced by HBI-8000, administered alone and in combination with anti-PD-1 RMP1-14 (anti-PD-1) were characterized in the 4T1 murine mammary carcinoma xenograft model in BALB/c mice. The impact of these therapies on lung metastasis was evaluated.\nTreatments began on Day (D) 1 in BALB/c mice bearing established 4T1 tumors. HBI-8000 was administered orally (p.o.) and anti-PD-1 was administered intraperitoneally (i.p.), at a single dose level. Test agents were administered alone and in combination with HBI-8000. Control animals received vehicle. The study ended on D14 as the endpoint for metastatic foci was reached. Treatment response was determined based on metastases counts taken from animals remaining on D14.\nIn Vivo Implantation and Tumor Growth: 4T1 tumor cells were harvested during exponential growth and resuspended in PBS. […] Tumor growth was monitored as the average size of tumors approached the target range of 80-120 mm3. […]\nResults were analyzed by counting the lung metastatic foci on D14, the last day of the study. […] Percent inhibition was defined as the difference between the number of metastatic foci of the designated control group and the number of metastatic foci of the drug-treated group, expressed as a percentage of the number of metastatic foci of the designated control group: […]"}, "[2]": {"target": "T1, HDAC 10 (Homo sapiens, UniProt Q969S8)", "T1 sequence (Q969S8 1-669)": "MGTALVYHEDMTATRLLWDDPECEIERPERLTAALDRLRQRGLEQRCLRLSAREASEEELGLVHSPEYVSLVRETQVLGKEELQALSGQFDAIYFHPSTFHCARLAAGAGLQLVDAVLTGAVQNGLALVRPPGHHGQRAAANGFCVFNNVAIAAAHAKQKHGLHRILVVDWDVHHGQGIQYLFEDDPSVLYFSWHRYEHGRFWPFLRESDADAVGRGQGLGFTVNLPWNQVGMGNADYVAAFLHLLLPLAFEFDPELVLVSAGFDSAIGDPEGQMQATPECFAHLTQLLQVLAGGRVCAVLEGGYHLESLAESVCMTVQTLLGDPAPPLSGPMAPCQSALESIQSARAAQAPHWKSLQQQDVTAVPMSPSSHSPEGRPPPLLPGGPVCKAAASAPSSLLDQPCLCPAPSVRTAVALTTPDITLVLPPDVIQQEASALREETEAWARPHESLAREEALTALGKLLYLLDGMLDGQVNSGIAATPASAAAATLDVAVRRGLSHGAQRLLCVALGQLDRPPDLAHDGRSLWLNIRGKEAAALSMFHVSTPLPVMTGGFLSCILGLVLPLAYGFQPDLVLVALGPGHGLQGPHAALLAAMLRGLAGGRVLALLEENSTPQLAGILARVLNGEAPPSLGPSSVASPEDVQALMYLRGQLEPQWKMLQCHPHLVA", "settings": "reported by Ning et al.; cited from earlier work"}}}
{"smiles": "Nc1cc(F)ccc1NC(=O)c1ccc(CNC(=O)/C=C/c2cccnc2)cc1", "note": "[HBI-8000, N-(2-amino-4-fluorophenyl)-4-[[[(2E)-1-oxo-3-(3-pyridinyl)-2-propen-1-yl]amino]methyl]benz amide]", "values": [{"measurement": "inhibition of lung metastatic foci", "setting": "[1]", "value": "−26", "unit": "%"}, {"measurement": "activity at HDAC 10 compared with Entinostat", "setting": "[2]", "value": "more active than Entinostat"}, {"measurement": "inhibition of HDAC 10", "setting": "[2]", "value": "low nanomolar concentrations"}]}
